Reference: patent US8192962B2, “Processes for detecting toxic substances” (Daikin Industries, Ltd., priority 2001, dated 2012)

System: DNA repair protein genes
Assay: DNA chip mRNA expression in yeast, DNA repair protein genes (Table 3)
Assay type: cell-based, Saccharomyces cerevisiae S288C
Settings: incubated two hours, concentrations as in the 1st table
Experimental: Yeast (Saccharomyces cerevisiae S288C (α SUC2mal mel gap2 CUP1)) were incubated at 25° C. on YPD medium (yeast extract 1%, polypepton 2%, glucose 2%). One of toxic chemical substances was added to the cells at logarithmic growth phase, and the cells were further incubated for two hours. Cells were cultured without any chemical substance in the same condition, and were used as control. Concentrations of the chemical substances were defined to inhibit the growth of the yeast but not lead to death.
After completion of the incubation, the culture was centrifuged to collect the cells. To the cells, sodium acetate buffer (50 mM sodium acetate, 10 mM EDTA, 1% SDS) was added, and the mixture was shaken at 65° C. for five minutes, followed by returning to room temperature, and obtaining the supernatant, of which the procedures were repeated two times. To the supernatant, ½ amount of a solution of phenol/chloroform was added, and the mixture was centrifuged to give a supernatant, which was added with an equal amount of chloroform, and the mixture was centrifuged to give a supernatant. To the supernatant, an equal amount of isopropanol containing 0.3 M sodium acetate was added, and the mixture was allowed to stand at room temperature for 30 minutes, after which the mixture was centrifuged to give a sediment of the whole RNAs. Seventy % ethanol was added to the sediment, and the mixture was again centrifuged to give a sediment, which was then dried and dissolved in water. mRNA was isolated from the whole RNAs as followings. In view of the fact that a poly A chain is attached to the 3′ terminus of mRNA, a polynucleotide having a poly T structure which was immobilized on the surface of latex beads was used to trap the mRNA, and then the mRNA was washed and eluted with spine column (Oligotex-dT30<Super>mRNA Purification Kit, Takara). Reverse transcription of the mRNA was conducted with a reverse transcriptase (Super Script II Reverse Transcriptase; catalogue No. 18064-014, GibcoBRL) using fluorescence-labeled nucleotides to give cDNAs that were introduced with Cy3-dUTP or Cy5-dUTP during the reverse transcription.
The labeled cDNAs were dissolved in TE buffer (10mM Tris-HCl/1 mM EDTA, pH8.0), and the solution was dropped on the DNA chip containing the whole genes of yeast (DNA Chip Research Inc. Japan) so that the cDNAs were hybridized on the DNA chip at 65° C. for over 12 hours. The fluoresces intensity of the DNA chip was read with a scanner, and the ratio relative to the fluorescence intensity resulting from the absence of chemical substance was estimated as the following, which is shown in Tables 1 to 9: […]

Cl[C@H]1[C@H](Cl)[C@@H](Cl)[C@@H](Cl)[C@H](Cl)[C@H]1Cl [(7), γ-hexachlorocyclohexane]
The level of expressed mRNA in the presence of chemical substance/The level of expressed mRNA in the absence of chemical substance (yeast gene YAL015C): 1.2
The level of expressed mRNA in the presence of chemical substance/The level of expressed mRNA in the absence of chemical substance (yeast gene YAR007C): 0.8
The level of expressed mRNA in the presence of chemical substance/The level of expressed mRNA in the absence of chemical substance (yeast gene YBL019W): 1.2
The level of expressed mRNA in the presence of chemical substance/The level of expressed mRNA in the absence of chemical substance (yeast gene YBR073W): 0.6
The level of expressed mRNA in the presence of chemical substance/The level of expressed mRNA in the absence of chemical substance (yeast gene YBR272C): 1.9
The level of expressed mRNA in the presence of chemical substance/The level of expressed mRNA in the absence of chemical substance (yeast gene YCR014C): 1.1
The level of expressed mRNA in the presence of chemical substance/The level of expressed mRNA in the absence of chemical substance (yeast gene YDL017W): 1.1
The level of expressed mRNA in the presence of chemical substance/The level of expressed mRNA in the absence of chemical substance (yeast gene YDL059C): 1.1
The level of expressed mRNA in the presence of chemical substance/The level of expressed mRNA in the absence of chemical substance (yeast gene YDL200C): 1.7
The level of expressed mRNA in the presence of chemical substance/The level of expressed mRNA in the absence of chemical substance (yeast gene YDR054C): 1.1
The level of expressed mRNA in the presence of chemical substance/The level of expressed mRNA in the absence of chemical substance (yeast gene YDR369C): 0.4
The level of expressed mRNA in the presence of chemical substance/The level of expressed mRNA in the absence of chemical substance (yeast gene YEL019C): 1.2
The level of expressed mRNA in the presence of chemical substance/The level of expressed mRNA in the absence of chemical substance (yeast gene YEL037C): 0.8
The level of expressed mRNA in the presence of chemical substance/The level of expressed mRNA in the absence of chemical substance (yeast gene YER162C): 0.5
The level of expressed mRNA in the presence of chemical substance/The level of expressed mRNA in the absence of chemical substance (yeast gene YFL014W): 5.5
The level of expressed mRNA in the presence of chemical substance/The level of expressed mRNA in the absence of chemical substance (yeast gene YGL058W): 0.0
The level of expressed mRNA in the presence of chemical substance/The level of expressed mRNA in the absence of chemical substance (yeast gene YGL091C): 1.3
The level of expressed mRNA in the presence of chemical substance/The level of expressed mRNA in the absence of chemical substance (yeast gene YGL127C): 1.0
The level of expressed mRNA in the presence of chemical substance/The level of expressed mRNA in the absence of chemical substance (yeast gene YGL163C): 1.0
The level of expressed mRNA in the presence of chemical substance/The level of expressed mRNA in the absence of chemical substance (yeast gene YGL249W): 1.2
The level of expressed mRNA in the presence of chemical substance/The level of expressed mRNA in the absence of chemical substance (yeast gene YGR180C): 0.5
The level of expressed mRNA in the presence of chemical substance/The level of expressed mRNA in the absence of chemical substance (yeast gene YGR231C): 2.1
The level of expressed mRNA in the presence of chemical substance/The level of expressed mRNA in the absence of chemical substance (yeast gene YGR258C): 1.5
The level of expressed mRNA in the presence of chemical substance/The level of expressed mRNA in the absence of chemical substance (yeast gene YHR164C): 0.8
The level of expressed mRNA in the presence of chemical substance/The level of expressed mRNA in the absence of chemical substance (yeast gene YIL036W): 1.4
The level of expressed mRNA in the presence of chemical substance/The level of expressed mRNA in the absence of chemical substance (yeast gene YIL072W): 1.7
The level of expressed mRNA in the presence of chemical substance/The level of expressed mRNA in the absence of chemical substance (yeast gene YIL143C): 0.8
The level of expressed mRNA in the presence of chemical substance/The level of expressed mRNA in the absence of chemical substance (yeast gene YIL153W): 1.6
The level of expressed mRNA in the presence of chemical substance/The level of expressed mRNA in the absence of chemical substance (yeast gene YIR002C): 1.3
The level of expressed mRNA in the presence of chemical substance/The level of expressed mRNA in the absence of chemical substance (yeast gene YJL026W): 0.5
The level of expressed mRNA in the presence of chemical substance/The level of expressed mRNA in the absence of chemical substance (yeast gene YJR046W): 0.9
The level of expressed mRNA in the presence of chemical substance/The level of expressed mRNA in the absence of chemical substance (yeast gene YJR052W): 1.2
The level of expressed mRNA in the presence of chemical substance/The level of expressed mRNA in the absence of chemical substance (yeast gene YKL145W): 1.6
The level of expressed mRNA in the presence of chemical substance/The level of expressed mRNA in the absence of chemical substance (yeast gene YLR103C): 1.3
The level of expressed mRNA in the presence of chemical substance/The level of expressed mRNA in the absence of chemical substance (yeast gene YLR233C): 0.8
The level of expressed mRNA in the presence of chemical substance/The level of expressed mRNA in the absence of chemical substance (yeast gene YLR288C): 1.3
The level of expressed mRNA in the presence of chemical substance/The level of expressed mRNA in the absence of chemical substance (yeast gene YML032C): 0.8
The level of expressed mRNA in the presence of chemical substance/The level of expressed mRNA in the absence of chemical substance (yeast gene YML058W): 0.6
The level of expressed mRNA in the presence of chemical substance/The level of expressed mRNA in the absence of chemical substance (yeast gene YMR035W): 2.3
The level of expressed mRNA in the presence of chemical substance/The level of expressed mRNA in the absence of chemical substance (yeast gene YMR072W): 1.4
The level of expressed mRNA in the presence of chemical substance/The level of expressed mRNA in the absence of chemical substance (yeast gene YMR096W): 1.9
The level of expressed mRNA in the presence of chemical substance/The level of expressed mRNA in the absence of chemical substance (yeast gene YMR284W): 0.8
The level of expressed mRNA in the presence of chemical substance/The level of expressed mRNA in the absence of chemical substance (yeast gene YNL213C): 1.4
The level of expressed mRNA in the presence of chemical substance/The level of expressed mRNA in the absence of chemical substance (yeast gene YNL250W): 1.2
The level of expressed mRNA in the presence of chemical substance/The level of expressed mRNA in the absence of chemical substance (yeast gene YNL261W): 1.0
The level of expressed mRNA in the presence of chemical substance/The level of expressed mRNA in the absence of chemical substance (yeast gene YNL312W): 0.5
The level of expressed mRNA in the presence of chemical substance/The level of expressed mRNA in the absence of chemical substance (yeast gene YOL043C): 1.0
The level of expressed mRNA in the presence of chemical substance/The level of expressed mRNA in the absence of chemical substance (yeast gene YOR005C): 1.4
The level of expressed mRNA in the presence of chemical substance/The level of expressed mRNA in the absence of chemical substance (yeast gene YOR386W): 1.8
The level of expressed mRNA in the presence of chemical substance/The level of expressed mRNA in the absence of chemical substance (yeast gene YPL022W): 0.8
The level of expressed mRNA in the presence of chemical substance/The level of expressed mRNA in the absence of chemical substance (yeast gene YPL164C): 0.9
The level of expressed mRNA in the presence of chemical substance/The level of expressed mRNA in the absence of chemical substance (yeast gene YPL194W): 1.5
The level of expressed mRNA in the presence of chemical substance/The level of expressed mRNA in the absence of chemical substance (yeast gene YPR025C): 1.4
